Experimental data published in ChEMBL document CHEMBL1157517, “Hepatitis C virus NS3-4A serine protease inhibitors: SAR of new P1 derivatives of SCH 503034” (Bioorg Med Chem Lett, 2008).

Assays:
[1] = Inhibition of HCV NS3 serine protease; parameters: species or system Hepacivirus hominis
Hepatitis C virus = experiment: Antiviral activity against HCV; type: functional, Hepacivirus hominis
[2] = AUC in rat at 3 mg/kg, po; type: ADME, organism-based; parameters: dose 3 mg/kg, route oral; conditions: plasma

SMILES | Ki [1] [nM] | EC90 (Hepatitis C virus) [nM] | AUC [2] [µM·h]
CC(C)(C)NC(=O)N[C@H](C(=O)N1C[C@H]2[C@@H]([C@H]1C(=O)NC(CCC(F)(F)F)C(=O)C(N)=O)C2(C)C)C(C)(C)C (stereo partly drawn) | 65 | 600 | 0.02
CC(C)(C)NC(=O)N[C@H](C(=O)N1C[C@H]2[C@@H]([C@H]1C(=O)NC(CC1CC1(F)F)C(=O)C(N)=O)C2(C)C)C(C)(C)C (stereo partly drawn) | 50 | 1000 | 
CC(C)(C)NC(=O)N[C@H](C(=O)N1C[C@H]2[C@@H]([C@H]1C(=O)NC(CCCC(F)(F)F)C(=O)C(N)=O)C2(C)C)C(C)(C)C (stereo partly drawn) | 1300 |  | 
CC(C)(C)NC(=O)N[C@H](C(=O)N1C[C@H]2[C@@H]([C@H]1C(=O)NC(CC1(O)CCC1)C(=O)C(N)=O)C2(C)C)C(C)(C)C (stereo partly drawn) | 163000 |  | 
CC(C)(C)NC(=O)N[C@H](C(=O)N1C[C@H]2[C@@H]([C@H]1C(=O)NC(CC(F)(F)F)C(=O)C(N)=O)C2(C)C)C(C)(C)C (stereo partly drawn) | 120 |  | 
CC(F)(F)CC(NC(=O)[C@@H]1[C@@H]2[C@H](CN1C(=O)[C@@H](NC(=O)NC(C)(C)C)C(C)(C)C)C2(C)C)C(=O)C(N)=O (stereo partly drawn) | 230 |  | 
CC(C)(C)NC(=O)N[C@H](C(=O)N1C[C@H]2[C@@H]([C@H]1C(=O)NC(CC1CCC1)C(=O)C(N)=O)C2(C)C)C(C)(C)C (stereo partly drawn) [BOCEPREVIR] | 14 | 350 | 
CC(C)(C)NC(=O)N[C@H](C(=O)N1C[C@H]2[C@@H]([C@H]1C(=O)NC(C[C@H]1C[C@@H](O)C1)C(=O)C(N)=O)C2(C)C)C(C)(C)C (stereo partly drawn) | 160 |  | 
CCC(F)(F)CC(NC(=O)[C@@H]1[C@@H]2[C@H](CN1C(=O)[C@@H](NC(=O)NC(C)(C)C)C(C)(C)C)C2(C)C)C(=O)C(N)=O (stereo partly drawn) | 360 |  | 
CC(C)(C)NC(=O)N[C@H](C(=O)N1C[C@H]2[C@@H]([C@H]1C(=O)NC(CC1CC(F)(F)C1)C(=O)C(N)=O)C2(C)C)C(C)(C)C (stereo partly drawn) | 98 | 1200 | 1.1
CC(C)(C)NC(=O)N[C@H](C(=O)N1C[C@H]2[C@@H]([C@H]1C(=O)NC(CC1(F)CCC1)C(=O)C(N)=O)C2(C)C)C(C)(C)C (stereo partly drawn) | 210 |  | 0.31
